Patent publication US7053123B2, “Substituted (e)-styryl benzylsulfones for treating proliferative disorders” (Temple University-of the Commonwealth System of Higher …, priority 2000, dated 2006)

What was measured:
Format in all cases: cell-based
[1] = tested on: non-small cell lung carcinoma cell line H157; test: Tumor cell viability assay (Trypan blue exclusion), H157; conditions: tested at 5, 10 and 20 μM, 96 hours, read-out: G150 (the concentration resulting in 50% growth inhibition)
Text: (§1) The effect of the Example 13 compound on the growth of normal fibroblasts and on tumor cells of prostate, colon, lung, brain, pancreas and breast origin was examined utilizing the following cell lines: prostate carcinoma cell line DU-145; colorectal carcinoma cell line DLD-1; non-small cell lung carcinoma cell line H157; pancreatic carcinoma cell line MIA-Pa-Ca-2; glioblastoma cell line U87; and breast adenocarcinoma cell line BT-20. BT-20 is an estrogen-unresponsive cell line. NIH/3T3 and HFL are normal murine and human fibroblasts, respectively. BT-20, DLD-1 and H157 were grown in Dulbecco's modified Eagle's medium (DMEM) containing 10% fetal bovine serum supplemented with penicillin and streptomycin. DU145 was cultured in RPMI with 10% fetal bovine serum containing penicillin and streptomycin. […]
(§2) Cells were treated with the Example 13 compound at concentrations of 100, 250, 500 and 1000 nM. Cell viability was determined after 96 hours by the Trypan blue exclusion method. […] The drug G150 (the concentration resulting in 50% growth inhibition) was calculated as 200 nM for the MIA-Pa-Ca-2 cell line.
(§3) The procedure of Example 40 was followed for the compound of Example 37, on cell lines DLD-1, H157 and BT20, at 5, 10 and 20 μM concentrations. The drug G150 was calculated for each cell line as follows: DLD, 8 μM; H157, 15 μM; and BT20, 15 μM.

[2] = tested on: colorectal carcinoma cell line DLD-1; test: Tumor cell viability assay (Trypan blue exclusion), DLD-1; conditions: DLD-1 cell line, tested at 5, 10 and 20 μM, 96 hours, read-out: G150 (the concentration resulting in 50% growth inhibition)
Text: as §1, §2, §3

[3] = tested on: breast adenocarcinoma cell line BT-20; test: Tumor cell viability assay (Trypan blue exclusion), BT-20; conditions: BT20 cell line, tested at 5, 10 and 20 μM, 96 hours, read-out: G150 (the concentration resulting in 50% growth inhibition)
Text: as §1, §2, §3

[4] = tested on: HFL normal human fibroblasts; test: Normal fibroblast viability assay (Trypan blue exclusion), HFL; conditions: normal cells HFL; treated at 100-1000 nM; 96 hours
Text: (§4) The effect of the Example 13 compound on the growth of normal fibroblasts and on tumor cells of prostate, colon, lung, brain, pancreas and breast origin was examined utilizing the following cell lines: prostate carcinoma cell line DU-145; colorectal carcinoma cell line DLD-1; non-small cell lung carcinoma cell line H157; pancreatic carcinoma cell line MIA-Pa-Ca-2; glioblastoma cell line U87; and breast adenocarcinoma cell line BT-20. BT-20 is an estrogen-unresponsive cell line. NIH/3T3 and HFL are normal murine and human fibroblasts, respectively. BT-20, DLD-1 and H157 were grown in Dulbecco's modified Eagle's medium (DMEM) containing 10% fetal bovine serum supplemented with penicillin and streptomycin. DU145 was cultured in RPMI with 10% fetal bovine serum containing penicillin and streptomycin. NIH3T3 and HFL cells were grown in DMEM containing 10% calf serum supplemented with penicillin and streptomycin. Cells were plated at density levels of 1.0×10^5 cells per well in six-well plates. Cell cultures were maintained at 37° C. in a humidified atmosphere of 5% CO2.
as §2

[5] = tested on: pancreatic carcinoma cell line MIA-Pa-Ca-2; test: Tumor cell viability assay (Trypan blue exclusion), MIA-Pa-Ca-2; conditions: MIA-Pa-Ca-2 cell line, 96 hours, vs DMSO-treated cells, read-out: G150 (the concentration resulting in 50% growth inhibition)
Text: as §4, §2

[6] = tested on: NIH/3T3 normal murine fibroblasts; test: Normal fibroblast viability assay (Trypan blue exclusion), NIH 3T3; conditions: normal cells NIH 3T3; treated at 100-1000 nM; 96 hours
Text: as §4, §2

**Q.** Which results are given for `O=[N+]([O-])c1ccccc1/C=C/S(=O)(=O)Cc1ccc(Cl)cc1Cl` [Example 37, (E)-2-Nitrostyryl-2,4-dichlorobenzylsulfone]?
**A.** IC50 [1]: 15 µM; IC50 [2]: 8 µM; IC50 [3]: 15 µM

**Q.** With “(E)-2,6-Dimethoxystyryl-4-methoxybenzylsulfone [Example 13]” as the compound, how does the cell death [4] read?
**A.** no appreciable cell death

**Q.** And the growth inhibition [4]?
**A.** 5%

**Q.** What about the IC50 [5] of the same compound?
**A.** 0.2 µM

**Q.** And the cell death [6]?
**A.** no appreciable cell death

**Q.** What about the growth inhibition [6] of the same compound?
**A.** 5%
